Measurements published in patent US20260023070A1, “OPTOGENETIC ALPHA-SYNUCLEIN AGGREGATION SYSTEM-BASED COMPOUND SCREENING PLATFORM IN PD-hiPSC-mDA NEURONS” (The Johns Hopkins University, priority 2022, published 2026).

Key:
α-syn PFF injected mice = test: In vivo intrastriatal α-syn PFF mouse model, oral BAG 956 (behaviour, histology, biochemistry); settings: short-term: two months at 2 mg/kg or one month at 10 mg/kg after intrastriatal α-syn PFF injection
[1] = test system: tau PFF treated mouse cortical neurons; test: tau PFF treated mouse cortical neurons, p-Tau western blot; type: cell-based
Protocol: It was tested whether the BAG956 compound can be beneficial in other proteinopathy models. The BAG and CDC compounds were used on the tau PFF treated mouse […] neurons (FIGS. 15A-15D) and measured expression levels with three different phosphorylated-Tau (p-Tau) antibodies.

[2] = test system: opto-α-syn PD hiPSC-derived mDA neurons; test: Light-induced α-syn aggregation and neurotoxicity in opto-α-syn PD hiPSC-derived mDA neurons; type: cell-based, human; settings: blue light 7 days; compared to DMSO control; significant at 1 and 10 nM CDC, 10 and 100 nM BAG
Protocol: Whether these potential hit compounds can inhibit α-syn aggregation and rescue aggregation-induced neuronal toxicity was tested on PD hiPSC-derived mDA neurons. The top 5 ranked small compounds in FIGURE SE were selected and these compounds to were used to treat opto-α-syn PD hiPSC-derived mDA neurons at three different concentrations (1 nM, 10 nM, 100 nM) with blue light stimulation. […] Overall, the two compounds were finally selected among the potential hit drugs from our novel opto-α-syn neuronal cell model-based primary screening (FIG. 11D), and they considerably rescued neuronal cell death from aggregation-induced TH^+ mDA neuron-selective toxicity in PD-iPSC derived neurons. To identify possible molecules involved in this compound-mediated recovery of TH^+ mDA neurons, RNA-sequencing (RNA-seq) analysis was performed with four different samples (dark condition with DMSO, blue light stimulation with DMSO, blue light stimulation with BAG treatment, and blue light stimulation with CDC treatment). To find BAG- or CDC-responsive genes, differentially expressed genes (DEGs) of DMSO-treated samples upon blue light stimulation were first extracted, and then the DEGs were filtered with criteria of which became non-DEGs in response to CDC or BAG treatment. […]
The effect of 5 selected compounds on opto-α-syn-expressing PD hiPSC-derived mDA neurons was evaluated. […]

opto-α-syn-MOs = test: Autophagy in opto-α-syn-MOs kept in dark after blue light illumination; type: cell-based, human; settings: treatment only during dark condition after blue light illumination for six days
Protocol: Because autophagy can be activated by the inhibition of PI 3-kinase (PI3K) or the PDK1 pathway, it was tested whether treatment with BAG 956 can induce the autophagic flux to decrease α-syn aggregates in opto-α-syn mDA neurons and MOs.

Q: Which results are given for `Cc1nc2cnc3ccc(C#Cc4cccnc4)cc3c2n1-c1ccc(C(C)(C)C#N)cc1` [BAG 956]?
A: pathologic pS129-α-syn immunoreactivity in TH neurons of the ventral midbrain (α-syn PFF injected mice): significantly reduced; all three forms of p-Tau (AT8, AT180, Tau-217) [1]: significantly downregulated; survival rate of TH+ mDA neurons [2]: significant increase; LC3+ puncta and LC3+/5G4+ co-localized dots (opto-α-syn-MOs): consistent
